Test results reported in patent US20050288300A1, “Methods of use fluoroquinolone compounds against maxillary sinus pathogenic bacteria” (LG Life Sciences Limited., priority 1999, published 2005).
Converted amounts (≈) assume the structure as drawn.

Experiments:
Format in all cases: cell-based
Haemophilus influenzae = test: MIC by agar dilution, maxillary sinus isolates; details: H. influenzae (n = 45); for MIC / MIC50 / MIC90: Haemophilus influenzae; for MIC: 24 h
Protocol: (§1) Test strains were obtained from recent maxillary sinus aspiration. Identification of organisms was by standard methods (see, for example, Murray, P. R., et al. Manual of Clinical Microbiology. 6th ed. American Society of Microbiology 1995: 282-620).
(§2) Antimicrobial activity was tested against 250 selected isolates (Table 1).
(§3) The agar dilution method using replicate plating of the organisms onto a series of agar plates of increasing concentrations was used (see, for example, National Committee for Clinical Laboratory Standards. Methods for antimicrobial susceptibility tests for bacteria that growth aerobically. Approved standards M 7-A4. National Committee for Laboratory Standards, Villanova, Pa., 1997).
(§4) MICs were determined by using doubling dilutions of between 0.02-256 mg/L with an inoculum of 10^4 CFU in area of 5-8 mm.
(§5) Haemophilus Test Medium was used for Haemophilus spp. and Wilkins-Chalgren agar was used for anaerobes.

[1] = MIC by agar dilution, maxillary sinus isolates; details: Streptococcus spp.: 5 Enterobacteriaceae, 6 non-fermentative Gram negative bacilli, 2 Neisseria meningitidis, 2 beta-haemolytic Streptococcus
Protocol: as §1, §2, §3, §4, §5

Staphylococcus aureus = test: MIC by agar dilution, maxillary sinus isolates; details: S. aureus (n = 31)
Protocol: as §1, §2, §3, §4, §5

Streptococcus pneumoniae = test: MIC by agar dilution, maxillary sinus isolates; details: S. pneumoniae (n = 85); for MIC / MIC50 / MIC90: Streptococcus pneumoniae; for MIC: 24 h
Protocol: as §1, §2, §3, §4, §5

[2] = system: Haemophilus parainfluenzae; test: MIC by agar dilution, maxillary sinus isolates; details: H. parainfluenzae (n = 10); for MIC: 24 h
Protocol: as §1, §2, §3, §4, §5

Moraxella catarrhalis = test: MIC by agar dilution, maxillary sinus isolates; details: M. catarrhalis (n = 45); for MIC / MIC50 / MIC90: Moraxella catarrhalis; for MIC: 24 h
Protocol: as §1, §2, §3, §4, §5

Anaerobic strains = test: MIC by agar dilution, maxillary sinus isolates; details: for MIC: 24 h, Anaerobic strains (n = 22): 12 Bacteroides spp., 7 Peptostreptococcus spp., 3 Bacteroides urealyticus
Protocol: as §1, §2, §3, §4, §5

Streptococcus spp. = test: MIC by agar dilution, maxillary sinus isolates; details: Streptococcus spp. (various other strains, 15)
Protocol: as §1, §2, §3, §4, §5

Row | SMILES | MIC (Haemophilus influenzae) [µg/mL] | MIC50 (Haemophilus influenzae) [µg/mL] | MIC Range (Staphylococcus aureus) [µg/mL] | MIC90 (Haemophilus influenzae) [µg/mL] | MIC 90% (Streptococcus pneumoniae) [µg/mL] | MIC (Streptococcus pneumoniae) [µg/mL] | MIC90 (Streptococcus pneumoniae) [µg/mL] | MIC50 (Staphylococcus aureus; Staphylococcus aureus) [µg/mL] | MIC [2] [µg/mL] | MIC (Moraxella catarrhalis) [µg/mL] | MIC50 (Moraxella catarrhalis) [µg/mL] | MIC (Anaerobic strains) [µg/mL] | MIC50 (Anaerobic strains; Anaerobic strains (n = 22)) [µg/mL] | MIC Range [1] | other results
1 | C[C@@H]1CN(c2c(F)c(N)c3c(=O)c(C(=O)O)cn(C4CC4)c3c2F)C[C@H](C)N1 [Sparfloxacin] | 0.03 to 1 (≈ 0.0765 to 2.55 µM) |  |  |  | 0.5 (≈ 1.27 µM) | 0.03 to 0.5 (≈ 0.0765 to 1.27 µM) | ≥ 0.25 |  |  | 0.02 to 1 (≈ 0.051 to 2.55 µM) | ≤ 0.02 | 0.25 to 16 (≈ 0.637 to 40.8 µM) |  | ≦0.02-0.5 mg/L | 
2 | N[C@@H]1[C@H]2CN(c3nc4c(cc3F)c(=O)c(C(=O)O)cn4-c3ccc(F)cc3F)C[C@@H]12 [Trovafloxacin] | 0.02 to 0.06 (≈ 0.048 to 0.144 µM) | ≤ 0.02 |  |  |  | 0.02 to 0.12 (≈ 0.048 to 0.288 µM) |  | 0.03 (≈ 0.0721 µM) | 0.02 to 0.12 (≈ 0.048 to 0.288 µM) | 0.02 to 0.06 (≈ 0.048 to 0.144 µM) | ≤ 0.02 | 0.06 to 4 (≈ 0.144 to 9.61 µM) |  | ≦0.02-0.5 mg/L | MIC 90% (Staphylococcus aureus): 0.03 µg/mL (≈ 0.0721 µM); MIC50 [2]: 0.03 µg/mL (≈ 0.0721 µM)
3 | C[C@H]1COc2c(N3CCN(C)CC3)c(F)cc3c(=O)c(C(=O)O)cn1c23 [Levofloxacin] | 0.02 to 0.03 (≈ 0.0553 to 0.083 µM) |  | 0.12 to 0.5 |  | 1 (≈ 2.77 µM) | 0.12 to 2 (≈ 0.332 to 5.53 µM) |  |  | 0.03 to 0.25 (≈ 0.083 to 0.692 µM) | 0.02 to 0.12 (≈ 0.0553 to 0.332 µM) |  | 0.12 to 1 (≈ 0.332 to 2.77 µM) |  | 0.03 to 0.25 µg/mL | MIC50 (Streptococcus spp.): 0.12 µg/mL (≈ 0.332 µM)
4 | CC1(C)S[C@@H]2[C@H](NC(=O)[C@H](N)c3ccc(O)cc3)C(=O)N2[C@H]1C(=O)O [Amoxycillin] |  | 0.25 (≈ 0.684 µM) | 0.06 to 2 | 2 (≈ 5.47 µM) |  | 0.02 to 1 (≈ 0.0547 to 2.74 µM) | 0.03 (≈ 0.0821 µM) |  | 0.03 to 1 (≈ 0.0821 to 2.74 µM) | 0.02 to 16 (≈ 0.0547 to 43.8 µM) |  |  | 0.25 (≈ 0.684 µM) |  | MIC50 (Streptococcus pneumoniae): 0.03 µg/mL (≈ 0.0821 µM); MIC 90% (Staphylococcus aureus): 1 µg/mL (≈ 2.74 µM); MIC90 (Staphylococcus aureus; Staphylococcus aureus): ≥ 1 µg/mL; MIC50 (Streptococcus spp.): 2 µg/mL (≈ 5.47 µM); MIC90 (Streptococcus spp.): 4 µg/mL (≈ 10.9 µM); MIC50 [2]: 0.06 µg/mL (≈ 0.164 µM); MIC90 [2]: 1 µg/mL (≈ 2.74 µM)
5 | CC1COc2c(N3CCN(C)CC3)c(F)cc3c(=O)c(C(=O)O)cn1c23 (centres unmarked) [Ofloxacin] | 0.02 to 0.06 (≈ 0.0553 to 0.166 µM) |  | 0.25 to 1 |  | 2 (≈ 5.53 µM) | 0.25 to 4 (≈ 0.692 to 11.1 µM) |  | 0.5 (≈ 1.38 µM) |  | 0.02 to 0.25 (≈ 0.0553 to 0.692 µM) |  | 0.25 to 2 (≈ 0.692 to 5.53 µM) | 0.5 (≈ 1.38 µM) | 0.06 to 0.5 µg/mL | 

The next lines start with results.

Row | MIC (Haemophilus influenzae) [µg/mL] | MIC50 (Haemophilus influenzae) [µg/mL] | MIC Range (Staphylococcus aureus) [µg/mL] | MIC90 (Haemophilus influenzae) [µg/mL] | MIC 90% (Streptococcus pneumoniae) [µg/mL] | MIC (Streptococcus pneumoniae) [µg/mL] | MIC90 (Streptococcus pneumoniae) [µg/mL] | MIC50 (Staphylococcus aureus; Staphylococcus aureus) [µg/mL] | MIC [2] [µg/mL] | MIC (Moraxella catarrhalis) [µg/mL] | MIC50 (Moraxella catarrhalis) [µg/mL] | MIC (Anaerobic strains) [µg/mL] | MIC50 (Anaerobic strains; Anaerobic strains (n = 22)) [µg/mL] | SMILES | MIC Range [1] | other results
6 | 0.02 to 0.12 (≈ 0.0498 to 0.299 µM) | 0.13 (≈ 0.324 µM) | 0.03 to 0.12 |  |  |  |  |  |  |  |  |  |  | COc1c(N2C[C@@H]3CCCN[C@@H]3C2)c(F)cc2c(=O)c(C(=O)O)cn(C3CC3)c12 [Moxifloxacin] | ≦0.02-0.5 mg/L | 
7 | 0.02 to 0.03 (≈ 0.0556 to 0.0835 µM) | ≤ 0.02 | 0.06 to 0.25 | ≤ 0.02 | 0.25 (≈ 0.696 µM) | 0.03 to 0.5 (≈ 0.0835 to 1.39 µM) | ≥ 0.25 | 0.12 (≈ 0.334 µM) | 0.02 to 0.12 (≈ 0.0556 to 0.334 µM) | 0.02 to 0.25 (≈ 0.0556 to 0.696 µM) | ≤ 0.02 | 0.25 to 8 (≈ 0.696 to 22.3 µM) | 0.25 (≈ 0.696 µM) | Cc1c(F)c(N2CCNC(C)C2)cc2c1c(=O)c(C(=O)O)cn2C1CC1 (centres unmarked) [Grepafloxacin] | ≦0.02-1 mg/L | MIC 90% (Haemophilus influenzae): ≦0.02 mg/L; MIC50 (Streptococcus pneumoniae): 0.25 µg/mL (≈ 0.696 µM); MIC90 [2]: 0.1 µg/mL (≈ 0.278 µM); MIC 90% (Moraxella catarrhalis): ≦0.02 mg/L; MIC90 (Moraxella catarrhalis): ≤ 0.02 µg/mL; MIC90 (Anaerobic strains; Anaerobic strains (n = 22)): 8 µg/mL (≈ 22.3 µM)
8 | 0.02 to 0.03 (≈ 0.0514 to 0.077 µM) | ≤ 0.02 | 0.03 to 1 | ≤ 0.02 |  | 0.02 to 0.06 (≈ 0.0514 to 0.154 µM) |  |  | 0.02 to 0.12 (≈ 0.0514 to 0.308 µM) | 0.02 to 0.03 (≈ 0.0514 to 0.077 µM) | ≤ 0.02 | 0.03 to 0.25 (≈ 0.077 to 0.642 µM) |  | CO/N=C1\CN(c2nc3c(cc2F)c(=O)c(C(=O)O)cn3C2CC2)CC1CN (racemic) [Gemifloxacin, (R,S)-7-(3-aminomethyl-4-methoxyiminopyrrolidin-1-yl)-1-cyclopropyl-6-fluoro-4-oxo-1,4-dihydro-1,8-naphthyridine-3-carboxylic acid] | ≦0.02-0.5 mg/L | MIC 90% (Haemophilus influenzae): ≦0.02 mg/L; MIC 90% (Moraxella catarrhalis): ≦0.02 mg/L; MIC90 (Moraxella catarrhalis): ≤ 0.02 µg/mL
